According to patent US11505558B1, “Antiviral heterocyclic compounds” (Enanta Pharmaceuticals, Inc., priority 2019, dated 2022):

What follows are molecules tested on genotype A, "Long" strain RSV (assay: RSV-A assay (CPE, ATPlite readout in Hep-2 cells)). Conditions: human respiratory syncytial virus, HEp-2, Hep-2 cells, genotype A "Long" strain RSV, MOI 0.1; read-out: Human RSV-A (“Long” strain) EC50.
Type: cell-based
How it was run: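 Protection from RSV-induced cytopathic effect, measured as ATPlite luminescence after 5 days, gave EC50 values. Assay used genotype A Long strain at MOI 0.1 on Hep-2 cells seeded at 8,000/well in DMEM growth media with 10% FBS; compounds tested as 2-fold dilutions in duplicate.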

| Structure (SMILES) | EC50 [nM] |
| --- | --- |
| COc1cc(C(=O)NC[C@](O)(c2cc3c(c(-c4ccc(F)cc4)n2)OC[C@]3(C)C(N)=O)C(F)(F)F)ccc1-c1conc1C [Example 186] | < 200 |
| C[C@]1(C(=O)N2CC[C@H](O)C2)COc2c1cc([C@@](O)(CNC(=O)c1cc(OC3CC3)c3ncccc3c1)C(F)(F)F)nc2-c1ccc(F)cc1 [Example 469] | > 200 |
| C[C@]1(C(=O)NC(=N)N)COc2c1cc([C@@](O)(CNC(=O)c1cc(OC3CC3)c3ncccc3c1)C(F)(F)F)nc2-c1ccc(F)cc1 [Example 458] | > 200 |
| Cc1cccc(-c2ccc(C(=O)NC[C@](O)(c3cc4c(c(-c5ccc(F)cc5)n3)OC[C@]4(C)C(N)=O)C(F)(F)F)cc2OC2CC2)n1 [Example 158] | > 200 |
| COc1ncc(-c2ccc(C(=O)NC[C@](O)(c3cc4c(c(-c5ccc(F)cc5)n3)OC[C@]4(C)C(N)=O)C(F)(F)F)cc2OC2CC2)s1 [Example 177] | > 200 |
| C[C@]1(C(N)=O)COc2c1cc([C@@](O)(CNC(=O)c1ccc3nccnc3c1)C(F)(F)F)nc2-c1ccc(F)cc1 [Example 234] | > 200 |
| C[C@]1(C(N)=O)COc2c1cc([C@@](O)(CNC(=O)c1cc(OCC(=O)NC[C@H](O)CO)c3ncccc3c1)C(F)(F)F)nc2-c1ccc(F)cc1 [Example 378] | > 200 |
| C[C@]1(C(N)=O)COc2c1cc([C@@](O)(CNC(=O)c1ccc(N3CCOCC3)c(OC3CC3)c1)C(F)(F)F)nc2-c1ccc(F)cc1 [Example 160] | > 200 |
| C[C@]1(C(N)=O)COc2c1cc([C@@](O)(CNC(=O)c1ccc3ncc(C(F)(F)F)cc3c1)C(F)(F)F)nc2-c1ccc(F)cc1 [Example 651] | < 200 |
| C[C@]1(C(N)=O)COc2c1cc([C@@](O)(CNC(=O)c1ccc(-c3cccnc3C(F)(F)F)c(OC3CC3)c1)C(F)(F)F)nc2-c1ccc(F)cc1 [Example 145] | > 200 |
| C[C@]1(C(N)=O)COc2c1cc([C@@](O)(CNC(=O)c1cc(OCC(=O)Nc3ccccc3)c3ncccc3c1)C(F)(F)F)nc2-c1ccc(F)cc1 [Example 371] | < 200 |
| Cc1cnc2c(NC(=O)NC3COC3)cc(C(=O)NC[C@](O)(c3cc4c(c(-c5ccc(F)cc5)n3)OC[C@]4(C)C(N)=O)C(F)(F)F)cc2c1 [Example 559] | < 200 |
| C[C@]1(C(N)=O)COc2c1cc([C@@](O)(CNC(=O)c1cc3c(F)cc(Cl)cc3[nH]1)C(F)(F)F)nc2-c1ccc(F)cc1 [Example 597] | < 200 |
| Cn1cc2cc(C(=O)NC[C@](O)(c3cc4c(c(-c5ccc(F)c(Cl)c5)n3)OC[C@]4(C)C(N)=O)C(F)(F)F)ccc2n1 [Example 639] | < 200 |
| CCc1cnc2c(OCC(N)=O)cc(C(=O)NC[C@](O)(c3cc4c(c(-c5ccc(F)cc5)n3)OC[C@]4(C)C(N)=O)C(F)(F)F)cc2c1 [Example 368] | < 200 |
| CCCNC(=O)[C@@]1(C)COc2c1cc([C@@](O)(CNC(=O)c1cc(OC3CC3)c3ncccc3c1)C(F)(F)F)nc2-c1ccc(F)cc1 [Example 456] | < 200 |
| COc1cc(C(=O)NC[C@](O)(c2cc3c(c(-c4ccc(F)cc4)n2)OC[C@]3(C)C(=O)NC2(C)CC(F)(F)C2)C(F)(F)F)cc2cccnc12 [Example 58] | > 200 |
| C[C@]1(C(N)=O)COc2c1cc([C@@](O)(CNC(=O)c1ccc(-c3cncs3)c(OC3CC3)c1)C(F)(F)F)nc2-c1ccc(F)cc1 [Example 175] | < 200 |
| C[C@]1(C(N)=O)COc2c1cc([C@@](O)(CNC(=O)c1ccc3nc(C(F)(F)F)sc3c1)C(F)(F)F)nc2-c1ccc(F)cc1 [Example 314] | < 200 |
| CN1Cc2cc(C(=O)NC[C@](O)(c3cc4c(c(-c5ccc(F)c(Cl)c5)n3)OC[C@]4(C)C(N)=O)C(F)(F)F)ccc2C1=O [Example 646] | < 200 |
| COc1cc(C(=O)NC[C@](O)(c2cc3c(c(-c4ccc(F)cc4)n2)OC[C@]3(C)C(=O)NC23CC(C2)C3)C(F)(F)F)cc2cccnc12 [Example 54] | < 200 |

| Structure (SMILES) | EC50 [nM] |
| --- | --- |
| C[C@]1(C(N)=O)COc2c1cc([C@@](O)(CNC(=O)c1ccc3c(c1)OCC(=O)N3)C(F)(F)F)nc2-c1ccc(F)cc1 [Example 606] | > 200 |
| Cc1ccc(-c2nc([C@@](O)(CNC(=O)c3cc(OC4CC4)c4ncccc4c3)C(F)(F)F)cc3c2OC[C@]3(C)C(N)=O)cc1 [Example 283] | < 200 |
| C[C@]1(C(N)=O)COc2c1cc([C@@](O)(CNC(=O)c1ccc(-c3ccnnc3)c(OC3CC3)c1)C(F)(F)F)nc2-c1ccc(F)cc1 [Example 168] | < 200 |
| C[C@]1(C(N)=O)COc2c1cc([C@@](O)(CNC(=O)c1ccc(OC3CC3)c(F)c1)C(F)(F)F)nc2-c1ccc(F)cc1 [Example 72] | < 200 |
| C[C@]1(C(=O)NCCCOC(N)=O)COc2c1cc([C@@](O)(CNC(=O)c1cc(OC3CC3)c3ncccc3c1)C(F)(F)F)nc2-c1ccc(F)cc1 [Example 457] | < 200 |
| CC(C)(O)CNC(=O)Nc1cc(C(=O)NC[C@](O)(c2cc3c(c(-c4ccc(F)cc4)n2)OC[C@]3(C)C(N)=O)C(F)(F)F)cc2cccnc12 [Example 412] | < 200 |
| Cn1c(=O)[nH]c2cc(C(=O)NC[C@](O)(c3cc4c(c(-c5ccc(F)cc5)n3)OC[C@]4(C)C(N)=O)C(F)(F)F)ccc21 [Example 325] | > 200 |
| COc1cc(C(=O)NC[C@](O)(c2cc3c(c(-c4ccc(F)cc4)n2)NC[C@]3(C)CO)C(F)(F)F)ccc1OCCO [Example 650] | < 200 |
| COc1cc(C(=O)NC[C@](O)(C2=CC3C(OC[C@]3(C)C(N)=O)C(c3ccc(F)cc3)=N2)C(F)(F)F)ccc1Cl (some centres unmarked) [Example 329] | < 200 |
| C[C@@H](O)COc1ccc(C(=O)NC[C@](O)(c2cc3c(c(-c4ccc(F)cc4)n2)OC[C@]3(C)C(N)=O)C(F)(F)F)cc1-c1cccnc1 [Example 204] | > 200 |
| COCCNC(=O)COc1cc(C(=O)NC[C@](O)(c2cc3c(c(-c4ccc(F)cc4)n2)OC[C@]3(C)C(N)=O)C(F)(F)F)cc2cccnc12 [Example 375] | > 200 |
| Cn1ncc2cc(C(=O)NC[C@](O)(c3cc4c(c(-c5ccc(F)cc5)n3)OC[C@]4(C)C(N)=O)C(F)(F)F)ccc21 [Example 591] | < 200 |
| C[C@]1(C(N)=O)COc2c1cc([C@@](O)(CNC(=O)c1ccc3c(c1)OC(F)(F)O3)C(F)(F)F)nc2-c1ccc(F)cc1 [Example 66] | > 200 |
| COc1cc(C(=O)NC[C@](O)(c2cc3c(c(C#Cc4ccc(F)c(Cl)c4)n2)OC[C@]3(C)C(N)=O)C(F)(F)F)ccc1OC1CC1 [Example 512] | > 200 |
| C[C@]1(C(N)=O)COc2c1cc([C@@](O)(CNC(=O)c1ccc(OC(F)F)c(OC(F)F)c1)C(F)(F)F)nc2-c1ccc(F)cc1 [Example 70] | < 200 |
| COc1cc(C(=O)NC[C@](O)(c2cc3c(c(-c4ccc(F)cc4)n2)OC[C@]3(C)C(N)=O)C(F)(F)F)ccc1-c1coc(C)n1 [Example 197] | > 200 |
| C[C@]1(C(N)=O)COc2c1cc([C@@](O)(CNC(=O)c1cc(NC(=O)C(F)F)c3ncccc3c1)C(F)(F)F)nc2-c1ccc(F)cc1 [Example 396] | < 200 |
| COc1ccc2[nH]c(C(=O)NC[C@](O)(c3cc4c(c(-c5ccc(F)cc5)n3)OC[C@]4(C)C(N)=O)C(F)(F)F)cc2c1 [Example 598] | < 200 |
| Cc1ccc2cc(C(=O)NC[C@](O)(c3cc4c(c(-c5ccc(F)c(Cl)c5)n3)OC[C@]4(C)C(N)=O)C(F)(F)F)cc(N3CCCC3=O)c2n1 [Example 653] | > 200 |
| Cn1cnc2cc(C(=O)NC[C@](O)(c3cc4c(c(-c5ccc(F)cc5)n3)OC[C@]4(C)C(N)=O)C(F)(F)F)ccc21 [Example 333] | > 200 |
